Data on one compound can be found in paper PMC6270924, “A New Urease Inhibitor from Viola betonicifolia” (Molecules, 2014).

This experiment addresses jack bean urease (Canavalia ensiformis, UniProt P07374). The experiment is described as follows: urease inhibition by indophenol (Weatherburn) ammonia assay; Lineweaver-Burk, secondary replot and Dixon plot kinetics (IC50 […]). The format is biochemical.

Sequence of jack bean urease (P07374 whole entry, looked up): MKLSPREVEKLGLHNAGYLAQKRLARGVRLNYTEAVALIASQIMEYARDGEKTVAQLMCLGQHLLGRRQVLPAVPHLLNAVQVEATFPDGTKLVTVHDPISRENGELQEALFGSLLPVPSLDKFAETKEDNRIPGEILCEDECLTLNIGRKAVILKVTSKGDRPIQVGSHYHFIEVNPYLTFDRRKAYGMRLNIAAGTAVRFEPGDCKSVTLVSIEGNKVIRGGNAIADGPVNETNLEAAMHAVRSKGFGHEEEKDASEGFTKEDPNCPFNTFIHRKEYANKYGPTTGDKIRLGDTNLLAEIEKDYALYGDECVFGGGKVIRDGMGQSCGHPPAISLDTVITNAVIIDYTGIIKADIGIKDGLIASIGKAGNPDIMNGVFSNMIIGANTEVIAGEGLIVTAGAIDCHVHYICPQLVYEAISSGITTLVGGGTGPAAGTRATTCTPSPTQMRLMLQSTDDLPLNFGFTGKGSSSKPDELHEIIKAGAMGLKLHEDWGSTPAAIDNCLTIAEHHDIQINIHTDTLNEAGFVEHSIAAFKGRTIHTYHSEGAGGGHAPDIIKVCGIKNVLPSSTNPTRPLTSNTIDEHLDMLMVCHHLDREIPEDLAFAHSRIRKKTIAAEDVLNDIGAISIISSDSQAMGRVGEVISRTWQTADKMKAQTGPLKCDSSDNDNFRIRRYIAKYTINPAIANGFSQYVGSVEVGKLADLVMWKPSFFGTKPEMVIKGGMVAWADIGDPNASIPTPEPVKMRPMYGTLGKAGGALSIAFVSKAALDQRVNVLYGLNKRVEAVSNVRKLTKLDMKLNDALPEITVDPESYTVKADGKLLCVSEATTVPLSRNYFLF

In turn, `C=C[C@@H](C1=CC(=O)C=C(OC)C1=O)c1ccccc1` [compound 1, 3-methoxydalbergione] yielded an inhibitory constant (Ki) of 138.16 ± 0.06 µM.
